# Experimental data as given in patent US20230211030A1, “SYSTEMS AND METHODS FOR DISINFECTING PLUMBING FIXTURES AND ROOMS WITH PLUMBING FIXTURES” (priority 2021, published 2023).
# Read-outs that look alike come from different tables or passages of the source.
# System: living organisms
# Settings: for ATP results, Under Rim, front: Before 74; for ATP results, Bowl Surface, left: Before 81; for ATP results, Bowl Surface, front: Before 91; for ATP results, Handle: Before 225; for ATP results, Tub Floor, right of drain: Before 6204
# From the text: First, a control module or control system was constructed using a Raspberry Pi computer with 7 inch touchscreen monitor, Arduino microcontroller, two electronic breadboards, power supplies, and other electrical interfaces. A computer program written in Python receives inputs from the user via a convenient, single-screen input graphic on the touch screen. The graphic allows the user to independently specify the times that disinfecting fluid is dispensed to the sink, toilet, and shower by pressing up and down keys to increase or decrease minutes and seconds for each time. The time between disinfection cycles or cycle time is also input in the same manner. The graphic allows the chemical pump, 3-MD SC made by Little Giant Pump Co., to be enabled or disabled with the touch of a button. A button to start and stop the disinfecting cycle and also an output telling the user what part of the cycle is being run and how much time is left with that part of the cycle is also provided on the graphic interface screen. […] All chemical lines were made from half inch ID PVC reinforced tubing. Half inch stainless steel ball valves manufactured by U.S. Solid were installed in each branch to each plumbing fixture to control the on/off flow to each plumbing fixture, with the valve electronic actuators being wired to the control module and controlled by the program. The distribution structure conduit or tubing at the plumbing fixtures was customized to the shape and location of each plumbing fixture and was attached to each plumbing fixture in the following manner. […] A plexiglass backsplash was constructed about ten inches in height and 14 inches in width, plus partitions on either side protruding forward from the back panel at 45 degrees to help guide disinfecting fluid into the sink basin. The backsplash was held down to the countertop by a bead of silicone caulk, and the upper branch of tubing was mounted on this backsplash above the faucet. […] Holes were drilled in the tubing into which Quarter Circle Fan Micro Spray nozzles made by Mister Landscaper and available at Lowes were inserted and directed to either spray downward to coat the sink walls directly under the nozzles with disinfecting fluid or outward to spray disinfecting fluid into the sink basin on the opposite side of the sink. […] In this tubing, eleven Half Circle Fan Micro Spray nozzles were inserted with ten directed outwards toward the inner surfaces of the toilet bowl and one directed downwards so as to spray fluid onto a relatively large surface of the toilet bowl in the front of the toilet that sloped more gently and was not easily contacted by spray directed towards the sides. […] The program was configured to first apply disinfecting fluid to the sink for the time inputted for the sink, then the toilet, then the shower. When the cycle begins, the program first opens the ball valve to allow fluid to flow to a particular plumbing fixture, and then the pump is turned on and remains on until the end of the dispensing time, at which point the pump is turned off and the valve is closed. This sequence then repeats sequentially until all three plumbing fixtures have received the prescribed time of disinfecting fluid application.
# [1] = Inside Toilet Bowl, After 3.5 Days, 40 secs each hour
# [2] = Inside Toilet Bowl, After 6.5 days (40 secs each hour for 3.5 days then 30s each hour for another 3 days)
substance,measurement,setting,value
hydrogen peroxide [1% H2O2],"ATP results, Bowl Surface, rear","Inside Toilet Bowl, After 3.5 Days, 40 secs each hour, Before 17",3 RLU
same,"ATP results, Under Rim, right","Inside Toilet Bowl, After 3.5 Days, 40 secs each hour, Before 26",3 RLU
same,"ATP results, Under Rim, front",[1],15 RLU
same,"ATP results, Bowl Surface, left",[1],5 RLU
same,"ATP results, Bowl Surface, front",[1],21 RLU
same,"ATP results, Bowl Surface (above water), right","Inside Toilet Bowl, After 3.5 Days, 40 secs each hour, Before 173",7 RLU
same,"ATP results, Under Rim, left","Inside Toilet Bowl, After 3.5 Days, 40 secs each hour, Before 258",1 RLU
same,"ATP results, Under Rim, rear","Inside Toilet Bowl, After 3.5 Days, 40 secs each hour, Before 3083",2 RLU
same,"ATP results, Under Rim, front",[2],2 RLU
same,"ATP results, Bowl Surface, left",[2],3 RLU
same,"ATP results, Bowl Surface, front",[2],5 RLU
same,"ATP results, Handle","Shower/Tub, After 3.5 Days, 40 secs each hour, disinfectant missed handle until adjustments were made",5381^2 RLU
same,"ATP results, Tub Floor Center","Shower/Tub, After 3.5 Days, 40 secs each hour, Before 1789, remained high due to soap scum not being removed",557^3 RLU
same,"ATP results, Tub Floor, left of drain","Shower/Tub, After 3.5 Days, 40 secs each hour, Before 4511",38 RLU
same,"ATP results, Tub Floor, right of drain","Shower/Tub, After 3.5 Days, 40 secs each hour",8 RLU
same,"ATP results, Inside Drain","Shower/Tub, After 3.5 Days, 40 secs each hour, Before 6559",6 RLU
same,"ATP results, Top of Drain Plug and Drain Collar","Shower/Tub, After 3.5 Days, 40 secs each hour, Before 6941",38 RLU
same,"ATP results, Handle","Shower/Tub, After 6.5 days (40 secs each hour for 3.5 days then 30s each hour for another 3 days), after spray adjusted to hit handle",16 RLU
same,"ATP results, Tub Floor, right of drain","Shower/Tub, After 6.5 days (40 secs each hour for 3.5 days then 30s each hour for another 3 days)",22 RLU
same,"ATP results, Sink Basin, Right of Drain","Sink, After 3.5 Days, 40 secs each hour, Before 770",13 RLU
same,"ATP results, Sink Counter, left of faucet","Sink, After 3.5 Days, 40 secs each hour, Before 1876",6 RLU
same,"ATP results, Inside Drain Collar Wall","Sink, After 3.5 Days, 40 secs each hour, Before 1951",10 RLU
same,"ATP results, Top of Drain Plug and Drain Collar","Sink, After 3.5 Days, 40 secs each hour, Before 4351",46 RLU
same,"ATP results, Drain Plug, Down Inside Drain (avg)","Sink, After 3.5 Days, 40 secs each hour, Before 6863",95 RLU
